Where “and” joins values, the source holds several entries; their conditions need not be identical. Equal entries are not always repeated.
Tested on: BDF1 mice, Adenocarcinoma 755 s.c., tumor weight T/C
Assay: NCI In Vivo Anticancer Drug Screen. Data for tumor model Adenocarcinoma 755 (subcutaneous) in B6D2F1 (BDF1) mice
Details: endpoint: mean tumor weight, higher = larger tumour
How it was run: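 Compound activity was tested in mice carrying transplanted tumors. Survival or tumor size was measured, and each value is the treated-group measurement divided by that of the vehicle-treated control group (T/C).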

[1] = dose: 30.0 mg/kg/injection, schedule: Q01DX011 (ip), vehicle: carboxymethylcellulose (CMC)
[2] = dose: 6.25 mg/kg/injection, schedule: Q01DX011 (ip), vehicle: methylcellulose (MC)
[3] = dose: 2.0 mg/kg/injection, schedule: Q01DX011 (ip), vehicle: saline

`CC(=O)[C@H]1CC[C@H]2[C@@H]3CCC4=CC(=O)CC[C@]4(C)[C@H]3CC[C@]12C` was tested, and the T/C (dose: 250.0 mg/kg/injection, schedule: Q01DX011 (sc), vehicle: steriod suspending solution) was 97 % of control and the T/C (dose: 500.0 mg/kg/injection, schedule: Q01DX011 (sc), vehicle: steriod suspending solution) was 46 % of control.

For `CC(C)(CBr)C(=O)N1CCN(C(=O)C(C)(C)CBr)CC1`, the T/C (dose: 7.0 mg/kg/injection, schedule: Q01DX011 (ip), vehicle: methylcellulose (MC)) was 80 % of control and the T/C (dose: 14.0 mg/kg/injection, schedule: Q01DX011 (ip), vehicle: methylcellulose (MC)) was 56 % of control.

In the case of `CN(C)[C@@H]1C(=O)C(C(=O)NCNCCCC(=O)O)=C(O)[C@@]2(O)C(=O)C3=C(O)c4c(O)cccc4[C@@](C)(O)[C@H]3C[C@@H]12`, the T/C (dose: 87.5 mg/kg/injection, schedule: Q01DX011 (ip), vehicle: saline) is reported as 106 % of control and 115 % of control, the T/C (dose: 175.0 mg/kg/injection, schedule: Q01DX011 (ip), vehicle: saline) is reported as 54 % of control and 78 % of control and the T/C (dose: 350.0 mg/kg/injection, schedule: Q01DX011 (ip), vehicle: saline) is reported as 51 % of control and 52 % of control.

With `O=C(Nc1nc2c(ncn2C2CC(OC(=O)c3ccccc3)C(COC(=O)c3ccccc3)O2)c(=O)[nH]1)c1ccccc1` (stereo not given) the T/C [1] was 103 % of control, the T/C (dose: 60.0 mg/kg/injection, schedule: Q01DX011 (ip), vehicle: carboxymethylcellulose (CMC)) was 94 % of control and the T/C (dose: 120.0 mg/kg/injection, schedule: Q01DX011 (ip), vehicle: carboxymethylcellulose (CMC)) was 113 % of control. The T/C (dose: 240.0 mg/kg/injection, schedule: Q01DX011 (ip), vehicle: carboxymethylcellulose (CMC)) was 124 % of control.

With `C[C@]12C=CC(=O)C=C1[C@@H](F)C[C@@H]1[C@@H]2[C@@H](O)C[C@@]2(C)[C@H]1CC[C@]2(O)C(=O)CO` the T/C (dose: 3.0 mg/kg/injection, schedule: Q01DX011 (ip), vehicle: methylcellulose (MC)) was 63 % of control and 64 % of control, the T/C (dose: 3.0 mg/kg/injection, schedule: Q01DX011 (sc), vehicle: steriod suspending solution) was 51 % of control and the T/C (dose: 6.0 mg/kg/injection, schedule: Q01DX011 (ip), vehicle: methylcellulose (MC)) was 41 % of control and 43 % of control. For the same compound, the T/C (dose: 6.0 mg/kg/injection, schedule: Q01DX011 (sc), vehicle: steriod suspending solution) was 53 % of control, the T/C (dose: 12.0 mg/kg/injection, schedule: Q01DX011 (ip), vehicle: methylcellulose (MC)) was 37 % of control and 41 % of control and the T/C (dose: 12.0 mg/kg/injection, schedule: Q01DX011 (sc), vehicle: steriod suspending solution) was 46 % of control. The T/C (dose: 24.0 mg/kg/injection, schedule: Q01DX011 (ip), vehicle: methylcellulose (MC)) was 30 % of control and 40 % of control, the T/C (dose: 24.0 mg/kg/injection, schedule: Q01DX011 (sc), vehicle: steriod suspending solution) was 30 % of control and the T/C (dose: 48.0 mg/kg/injection, schedule: Q01DX011 (sc), vehicle: steriod suspending solution) was 23 % of control.

For `Cc1cc(NC(=O)c2ccc(C(=O)Nc3ccc(N=Nc4cc(S(=O)(=O)O)c5cccc(S(=O)(=O)O)c5c4)c(C)c3)cc2)ccc1N=Nc1cc(S(=O)(=O)O)c2cccc(S(=O)(=O)O)c2c1`, the T/C [1] was 114 % of control.

For `c1cc(CSc2ncnc3nc[nH]c23)ccn1`, the T/C (dose: 3.1 mg/kg/injection, schedule: Q01DX011 (ip), vehicle: methylcellulose (MC)) was 72 % of control, the T/C [2] was 39 % of control and the T/C (dose: 12.5 mg/kg/injection, schedule: Q01DX011 (ip), vehicle: methylcellulose (MC)) was 29 % of control. The T/C (dose: 25.0 mg/kg/injection, schedule: Q01DX011 (ip), vehicle: methylcellulose (MC)) was 16 % of control and 25 % of control, the T/C (dose: 50.0 mg/kg/injection, schedule: Q01DX011 (ip), vehicle: methylcellulose (MC)) was 12 % of control and the T/C (dose: 100.0 mg/kg/injection, schedule: Q01DX011 (ip), vehicle: methylcellulose (MC)) was 7 % of control. The T/C (dose: 200.0 mg/kg/injection, schedule: Q01DX011 (ip), vehicle: methylcellulose (MC)) was 2 % of control.

`c1ccc2cc(SCCCN3CCOCC3)ccc2c1` was tested, and the T/C (dose: 37.5 mg/kg/injection, schedule: Q01DX011 (ip), vehicle: methylcellulose (MC)) was 90 % of control and 107 % of control, the T/C (dose: 37.5 mg/kg/injection, schedule: Q01DX011 (ip), vehicle: saline) was 115 % of control and the T/C (dose: 75.0 mg/kg/injection, schedule: Q01DX011 (ip), vehicle: methylcellulose (MC)) was 103 % of control. The T/C (dose: 75.0 mg/kg/injection, schedule: Q01DX011 (ip), vehicle: saline) was 59 % of control, the T/C (dose: 150.0 mg/kg/injection, schedule: Q01DX011 (ip), vehicle: methylcellulose (MC)) was 70 % of control and the T/C (dose: 150.0 mg/kg/injection, schedule: Q01DX011 (ip), vehicle: saline) was 20 % of control.

For `CC(=O)N[C@H]1CC[C@H]2[C@@H]3CCC4=CC(=O)CC[C@]4(C)[C@H]3CC[C@]12C`, the T/C (dose: 5.0 mg/kg/injection, schedule: Q01DX011 (sc), vehicle: steriod suspending solution) was 99 % of control, the T/C (dose: 50.0 mg/kg/injection, schedule: Q01DX011 (sc), vehicle: steriod suspending solution) was 111 % of control and the T/C (dose: 100.0 mg/kg/injection, schedule: Q01DX011 (sc), vehicle: steriod suspending solution) was 89 % of control.

For `Nc1nc(SCc2ccccn2)c2[nH]cnc2n1`, the T/C (dose: 0.78 mg/kg/injection, schedule: Q01DX011 (ip), vehicle: methylcellulose (MC)) was 63 % of control, the T/C (dose: 1.56 mg/kg/injection, schedule: Q01DX011 (ip), vehicle: methylcellulose (MC)) was 14 % of control and the T/C (dose: 3.12 mg/kg/injection, schedule: Q01DX011 (ip), vehicle: methylcellulose (MC)) was 3 % of control. For the same compound, the T/C [2] was 2 % of control.

In the case of `C=CCSc1ncnc2c1ncn2C1OC(CO)C(O)C1O` (stereo not given), the T/C (dose: 1.0 mg/kg/injection, schedule: Q01DX011 (ip), vehicle: saline) is reported as 63 % of control, the T/C (dose: 1.6 mg/kg/injection, schedule: Q01DX011 (ip), vehicle: saline) is reported as 82 % of control and the T/C [3] is reported as 112 % of control. For the same compound, the T/C (dose: 3.2 mg/kg/injection, schedule: Q01DX011 (ip), vehicle: saline) was 119 % of control, the T/C (dose: 4.0 mg/kg/injection, schedule: Q01DX011 (ip), vehicle: saline) was 50 % of control and the T/C (dose: 5.0 mg/kg/injection, schedule: Q01DX011 (ip), vehicle: saline) was 75 % of control. For the same compound, the T/C (dose: 6.3 mg/kg/injection, schedule: Q01DX011 (ip), vehicle: saline) was 40 % of control, the T/C (dose: 7.0 mg/kg/injection, schedule: Q01DX011 (ip), vehicle: saline) was 16 % of control and the T/C (dose: 10.0 mg/kg/injection, schedule: Q01DX011 (ip), vehicle: saline) was 38 % of control. For the same compound, the T/C (dose: 12.5 mg/kg/injection, schedule: Q01DX011 (ip), vehicle: saline) was 42 % of control, the T/C (dose: 13.0 mg/kg/injection, schedule: Q01DX011 (ip), vehicle: saline) was 2 % of control and the T/C (dose: 20.0 mg/kg/injection, schedule: Q01DX011 (ip), vehicle: saline) was 8 % of control. For the same compound, the T/C (dose: 25.0 mg/kg/injection, schedule: Q01DX011 (ip), vehicle: saline) was 1 % of control and 19 % of control, the T/C (dose: 40.0 mg/kg/injection, schedule: Q01DX011 (ip), vehicle: saline) was 1 % of control and the T/C (dose: 50.0 mg/kg/injection, schedule: Q01DX011 (ip), vehicle: saline) was 18 % of control. The T/C (dose: 80.0 mg/kg/injection, schedule: Q01DX011 (ip), vehicle: saline) was 1 % of control and the T/C (dose: 100.0 mg/kg/injection, schedule: Q01DX011 (ip), vehicle: saline) was 11 % of control.

With `Cc1ccc(N2CCN(CCCN3CCN(c4ccccc4Cl)CC3)CC2)cc1` the T/C (dose: 6.0 mg/kg/injection, schedule: Q01DX011 (ip), vehicle: carboxymethylcellulose (CMC)) was 84 % of control, the T/C (dose: 11.0 mg/kg/injection, schedule: Q01DX011 (ip), vehicle: methylcellulose (MC)) was 29 % of control and the T/C (dose: 12.0 mg/kg/injection, schedule: Q01DX011 (ip), vehicle: carboxymethylcellulose (CMC)) was 64 % of control. For the same compound, the T/C (dose: 22.0 mg/kg/injection, schedule: Q01DX011 (ip), vehicle: methylcellulose (MC)) was 34 % of control, the T/C (dose: 22.5 mg/kg/injection, schedule: Q01DX011 (ip), vehicle: carboxymethylcellulose (CMC)) was 50 % of control and 55 % of control and the T/C (dose: 22.5 mg/kg/injection, schedule: Q01DX011 (ip), vehicle: other) was 93 % of control. The T/C (dose: 24.0 mg/kg/injection, schedule: Q01DX011 (ip), vehicle: carboxymethylcellulose (CMC)) was 65 % of control, the T/C (dose: 45.0 mg/kg/injection, schedule: Q01DX011 (ip), vehicle: carboxymethylcellulose (CMC)) was 50 % of control and 59 % of control and the T/C (dose: 45.0 mg/kg/injection, schedule: Q01DX011 (ip), vehicle: methylcellulose (MC)) was 12 % of control. The T/C (dose: 45.0 mg/kg/injection, schedule: Q01DX011 (ip), vehicle: other) was 69 % of control, the T/C (dose: 48.0 mg/kg/injection, schedule: Q01DX011 (ip), vehicle: carboxymethylcellulose (CMC)) was 63 % of control and the T/C (dose: 90.0 mg/kg/injection, schedule: Q01DX011 (ip), vehicle: carboxymethylcellulose (CMC)) was 43 % of control and 62 % of control. The T/C (dose: 96.0 mg/kg/injection, schedule: Q01DX011 (ip), vehicle: carboxymethylcellulose (CMC)) was 43 % of control.

`CC(=O)N(C(C)C)C(C)C` was tested, and the T/C (dose: 5.0 mg/kg/injection, schedule: Q01DX011 (ip), vehicle: other) was 95 % of control and the T/C (dose: 10.0 mg/kg/injection, schedule: Q01DX011 (ip), vehicle: other) was 91 % of control.

For `CCCCOP(=O)(N1CC1C)N1CC1C` (stereo not given), the T/C [3] was 92 % of control and 96 % of control and 114 % of control and the T/C (dose: 32.0 mg/kg/injection, schedule: Q01DX011 (ip), vehicle: saline) was 25 % of control.

Source: PubChem BioAssay AID180 (DTP/NCI, 2004)
